From US20240217990A1 (Gilead Sciences, Inc., priority 2021, published 2024)

Key:
TLR7 = biological target: T1, TLR7 (Homo sapiens, UniProt Q9NYK1); assay: TLR7 human PBMC cell-based assay (antagonist, GS-986 stimulated cytokine release); conditions: human PBMCs; TLR7 agonist GS-986 400 nM, 6 hours; cytokines (IL-6 and IFNα) in supernatant; read-out: TLR-7 EC50
T1 construct: Human peripheral blood mononuclear cells (PBMCs) consist of lymphocytes, monocytes and dendritic cells that express TLR7, TLR8 and TLR9; endogenous in cells; host or cells: cryopreserved human PBMCs from healthy donors
T1 sequence (Q9NYK1 27-1049): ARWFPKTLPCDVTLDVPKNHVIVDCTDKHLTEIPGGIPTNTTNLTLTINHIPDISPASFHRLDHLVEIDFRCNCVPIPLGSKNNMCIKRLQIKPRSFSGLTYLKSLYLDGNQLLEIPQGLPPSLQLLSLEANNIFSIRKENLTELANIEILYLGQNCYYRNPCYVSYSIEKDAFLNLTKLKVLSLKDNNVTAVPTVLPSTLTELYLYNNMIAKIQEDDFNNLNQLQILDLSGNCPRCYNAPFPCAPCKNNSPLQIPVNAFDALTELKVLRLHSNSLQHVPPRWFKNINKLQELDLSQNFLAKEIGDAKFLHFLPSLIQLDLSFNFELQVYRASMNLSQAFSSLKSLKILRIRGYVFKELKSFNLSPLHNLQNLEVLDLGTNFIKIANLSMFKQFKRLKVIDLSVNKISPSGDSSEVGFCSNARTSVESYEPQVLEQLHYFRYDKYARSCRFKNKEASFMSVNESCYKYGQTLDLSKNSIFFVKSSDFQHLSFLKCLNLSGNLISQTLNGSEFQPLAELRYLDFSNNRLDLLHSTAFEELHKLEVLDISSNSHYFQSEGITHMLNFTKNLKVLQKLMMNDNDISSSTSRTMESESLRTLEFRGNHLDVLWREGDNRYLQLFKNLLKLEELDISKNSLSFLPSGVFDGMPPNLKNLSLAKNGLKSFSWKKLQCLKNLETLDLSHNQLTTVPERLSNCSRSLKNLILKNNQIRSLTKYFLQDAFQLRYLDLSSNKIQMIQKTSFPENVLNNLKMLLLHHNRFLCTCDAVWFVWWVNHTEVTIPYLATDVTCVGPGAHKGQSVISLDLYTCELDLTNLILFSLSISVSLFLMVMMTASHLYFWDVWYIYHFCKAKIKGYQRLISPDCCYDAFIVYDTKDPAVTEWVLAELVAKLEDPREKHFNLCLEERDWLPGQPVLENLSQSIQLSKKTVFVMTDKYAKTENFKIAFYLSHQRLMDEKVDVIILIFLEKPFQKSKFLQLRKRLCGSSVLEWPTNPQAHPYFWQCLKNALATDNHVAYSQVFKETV
Source text: (§1) Human peripheral blood mononuclear cells (PBMCs) consist of lymphocytes, monocytes and dendritic cells that express TLR7, TLR8 and TLR9. These cells respond to TLR7, TLR8 and TLR9 ligand stimulation and produce cytokines and chemokines in vitro and in vivo. Human PBMCs are therefore suitable to be used in a cell-based assay to assess the in vitro potency of a TLR 7, 8, and/or 9 antagonist. The result is expected to be more translatable to the pharmacodynamics response in vivo than cell line-based assays.
Cryopreserved human PBMCs from healthy donors were thawed and resuspended in RPMI-1640 media with L-glutamine (Corning) supplemented with 10% Fetal Bovine Serum (Hyclone) and 1× Penicillin-Streptomycin (Corning). After counting, the cell density was adjusted to 2 million cells/ml and incubated for 1 hour at 37° C., 5% CO2 for recovery. Following the recovery, the cells were plated by adding 50 μl per well (100,000 cells) to 384-well cell culture plates (Greiner) containing 250 nl of test antagonists in 100% DMSO per well, in a 10 points dose response in quadruplicates. PBMCs were incubated in the presence of test antagonists for one hour at 37° C., 5% CO2 before being stimulated with a TLR7 or TLR9agonist. GS-986 (Gilead Sciences) was used as the TLR7 agonist at a final concentration of 400 nM. ODN-2216 (InvivoGen) was used as the TLR9 agonist at a final concentration of 3 μM. PBMCs were incubated in the presence of the test antagonist and the TLR7 (or TLR9) agonist for an additional 6 hours at 37° C., 5% CO2. At the end of the incubation, the cell culture plates were centrifuged at 500 g for 5 min, and the cell culture supernatant was collected. The level of cytokines (IL-6 and IFNα) in the supernatant was measured by electrochemiluminescence immunoassays (Mesoscale Discovery) following manufacturer's recommended protocols. The level of cytokine measured was plotted against the test antagonist concentration and fitted to a sigmoidal function to determine the EC50, which are shown below in Table 11.

TLR8 = biological target: T2, TLR8 (Homo sapiens, UniProt Q9NR97); assay: TLR8 human PBMC cell-based assay (antagonist, Compound A stimulated cytokine release); conditions: human PBMCs; TLR8 agonist Compound A 800 nM, 6 hours; cytokines (TNFa and IL 12p40) in supernatant; read-out: TLR-8 EC50
T2 construct: Human peripheral blood mononuclear cells (PBMCs) consist of lymphocytes, monocytes and dendritic cells that express TLR7, TLR8 and TLR9; endogenous in cells; host or cells: cryopreserved human PBMCs from healthy donors
T2 sequence (Q9NR97 27-1041): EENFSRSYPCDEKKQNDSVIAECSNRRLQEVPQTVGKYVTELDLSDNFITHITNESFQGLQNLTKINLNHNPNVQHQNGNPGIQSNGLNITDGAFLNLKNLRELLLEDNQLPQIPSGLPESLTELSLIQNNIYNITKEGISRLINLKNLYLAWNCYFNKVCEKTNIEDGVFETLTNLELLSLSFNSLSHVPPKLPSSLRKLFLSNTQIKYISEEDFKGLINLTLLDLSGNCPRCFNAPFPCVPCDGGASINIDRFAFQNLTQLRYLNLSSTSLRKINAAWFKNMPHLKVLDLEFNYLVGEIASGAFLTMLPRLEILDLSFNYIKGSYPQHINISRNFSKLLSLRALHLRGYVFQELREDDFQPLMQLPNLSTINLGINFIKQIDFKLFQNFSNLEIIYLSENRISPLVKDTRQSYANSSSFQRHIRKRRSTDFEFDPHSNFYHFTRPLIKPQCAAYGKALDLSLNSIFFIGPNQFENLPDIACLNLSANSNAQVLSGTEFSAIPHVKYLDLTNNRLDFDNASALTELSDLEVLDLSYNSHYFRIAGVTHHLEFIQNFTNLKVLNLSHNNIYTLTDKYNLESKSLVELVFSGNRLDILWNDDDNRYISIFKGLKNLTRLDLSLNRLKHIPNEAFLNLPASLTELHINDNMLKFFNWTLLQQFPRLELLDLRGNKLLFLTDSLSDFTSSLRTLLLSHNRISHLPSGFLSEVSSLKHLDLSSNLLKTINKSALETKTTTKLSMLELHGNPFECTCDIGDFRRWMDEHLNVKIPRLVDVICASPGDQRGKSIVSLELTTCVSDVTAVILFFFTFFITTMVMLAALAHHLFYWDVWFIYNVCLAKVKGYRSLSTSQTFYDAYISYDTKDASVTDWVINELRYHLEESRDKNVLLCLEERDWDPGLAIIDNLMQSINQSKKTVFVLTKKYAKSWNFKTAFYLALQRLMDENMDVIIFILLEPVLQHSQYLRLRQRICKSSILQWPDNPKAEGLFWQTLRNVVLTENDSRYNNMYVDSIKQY
Source text: as §1
Cryopreserved human PBMCs from healthy donors were thawed and resuspended in RPMI-1640 media with L-glutamine (Corning) supplemented with 10% Fetal Bovine Serum (Hyclone) and 1X Penicillin-Streptomycin (Corning). After counting, the cell density was adjusted to 2 million cells/ml and incubated for 1 hour at 37° C., 5% CO2 for recovery. Following the recovery, the cells were plated by adding 50 μl per well (100,000 cells) to 384-well cell culture plates (Greiner) containing 250 nl of test antagonists in 100% DMSO per well, in a 10 points dose response in quadruplicates. PBMCs were incubated in the presence of antagonists for one hour at 37° C., 5% CO2 before being stimulated with TLR8 agonist. Compound A (Gilead Sciences, U.S. Pat. No. 10,285,990) was used as the TLR8 agonist at a final concentration of 800 nM. PBMCs were incubated in the presence of antagonist and the TLR8 agonist for an additional 6 hours at 37° C., 5% CO2. At the end of the incubation, the cell culture plates were centrifuged at 500 g for 5 min, and the cell culture supernatant was collected. The level of cytokines (TNFa and IL 12p40) in the supernatant was measured by electrochemiluminescence immunoassays (Mesoscale Discovery) following manufacturer's recommended protocols. The level of cytokine measured was plotted against the antagonist concentration and fitted to a sigmoidal function to determine the EC50, which are shown below in Table 11.

Structure (SMILES)	EC50 (TLR7)	EC50 (TLR8)
Cc1cc(-c2[nH]c3cc(C(=O)N(C)C4CNC4)sc3c2C(C)C)cn2ncnc12 [Example 115]	3 nM	38 nM
CC(C)c1c(-c2cc(C(F)(F)F)c3ncnn3c2)[nH]c2cc(C(=O)N3CCNCC3)sc12 [Example 305]	2.36 nM	5.14 nM
Cc1cc(-c2[nH]c3cc(-c4nc5ccncc5[nH]4)sc3c2C(C)C)cn2ncnc12 [Example 236]	18.6 nM	14.2 nM
Cc1cc(-c2[nH]c3cc(-c4ccc5nc(C6[C@H]7CC[C@H](C7)N6CC(N)=O)[nH]c5c4)sc3c2C(C)C)cn2ncnc12 (some centres unmarked) [Example 170]	1.2 nM	10.5 nM
Cc1cc(-c2[nH]c3cc(C(=O)N4CCNCC4)sc3c2C(C)C)cc(C)n1 [Example 1, [5-(2,6-dimethyl-4-pyridyl)-6-isopropyl-4H-thieno[3,2-b]pyrrol-2-yl]-piperazin-1-yl-methanone]	24.8 nM	19.8 nM
Cc1cc(-c2[nH]c3cc(C(=O)N4CC[C@@H](N)C4)sc3c2C(C)C)cc(C)n1 [Example 8]	67.7 nM	27.2 nM
Cc1cc(-c2[nH]c3cc(C(=O)N4CCCC(CN(C)C)C4)sc3c2C(C)C)cn2ncnc12 (centres unmarked) [Example 112]	2.9 nM	6.4 nM
CN[C@H]1CCN(C(=O)c2cc3[nH]c(-c4cc(C)c5ncnn5c4)c(C(C)C)c3s2)C1 [Example 73]	4.9 nM	1.7 nM
Cc1cc(-c2[nH]c3cc(C(=O)N4CCNC(C)(C)C4)sc3c2C(C)C)cn2ncnc12 [Example 85]	1.3 nM	0.6 nM
Cc1cc(-c2[nH]c3cc(C(=O)N4CCN[C@H](c5ccccc5)C4)sc3c2C(C)C)cn2ncnc12 [Example 129]	18.1 nM	2.2 nM
COc1cc(-c2[nH]c3cc(C(=O)N4CCNCC4)sc3c2C(C)C)cn2ncnc12 [Example 64, (6-isopropyl-5-(8-methoxy-[1,2,4]triazolo[1,5-a]pyridin-6-yl)-4H-thieno[3,2-b]pyrrol-2-yl)(piperazin-1-yl)methanone]	0.9 nM	3.3 nM
Cc1cc(-c2[nH]c3cc(C(=O)N(C)CC4CCN(CC(N)=O)CC4)sc3c2C(C)C)cn2ncnc12 [Example 174]	11.4 nM	16.8 nM
Cc1cc(-c2[nH]c3cc(C(=O)N4C[C@H]5C[C@@H]4CN5)sc3c2C(C)C)cc(C)n1 [Example 21]	70.6 nM	66.2 nM
Cc1cc(-c2[nH]c3cc(C(=O)N4CCNCC4)sc3c2C(C)C)cn2ncnc12 [Example 38, [6-isopropyl-5-(8-methyl-[1,2,4]triazolo[1,5-a]pyridin-6-yl)-4H-thieno[3,2-b]pyrrol-2-yl]-piperazin-1-yl-methanone]	3.5 nM	3.4 nM
Cc1cc(-c2[nH]c3cc(C(=O)N4CCC5CCNC5C4)sc3c2C(C)C)cc(C)n1 (centres unmarked) [Example 30]	35.9 nM	30 nM

Now those with a lower EC50 (TLR7), led by results:

EC50 (TLR7)	EC50 (TLR8)	Structure (SMILES)
0.7 nM	1.3 nM	COc1cc(-c2[nH]c3cc(-c4cn(C5CCNCC5)nn4)sc3c2C(C)C)cn2ncnc12 [Example 232]
0.4 nM	3.2 nM	Cc1cc(-c2[nH]c3cc(-c4nnc(N5CCNCC5)s4)sc3c2C(C)C)cn2ncnc12 [Example 49]
0.4 nM	0.5 nM	Cc1cc(-c2[nH]c3cc(-c4ccc5c(c4)CCNC5)sc3c2C(C)C)cn2ncnc12 [Example 223]
0.2 nM	2.8 nM	Cc1cc(-c2[nH]c3cc(C4CCN(S(=O)(=O)C5CCNCC5)CC4)sc3c2C(C)C)cn2ncnc12 [Example 184]
0.4 nM	5.6 nM	Cc1cc(-c2[nH]c3cc(C4CCN(C(=O)C5CCCN(C)C5)CC4)sc3c2C(C)C)cn2ncnc12 (centres unmarked) [Example 203]
0.7 nM	19.9 nM	Cc1cc(-c2[nH]c3cc(C4CCC5(CC4)CN(C(=O)[C@H]4CCCN4C)C5)sc3c2C(C)C)cn2ncnc12 [Example 207]
0.5 nM	4.6 nM	Cc1cc(-c2[nH]c3cc(C(=O)N4CCC5CNCCC54)sc3c2C(C)C)cn2ncnc12 (centres unmarked) [Example 88]
